The results in this text go back to patent US20080132536A1, “PYRAZOLO [3,4-B] PYRIDINE COMPOUNDS, AND THEIR USE AS PDE4 INHIBITORS” (Glaxo Group Limited, priority 2003, published 2008).

The target of the test is T1, PDE4B (human recombinant) (Homo sapiens, UniProt Q07343).
T1 construct: made in house
T1 sequence (Q07343 1-564 isoform Q07343-2): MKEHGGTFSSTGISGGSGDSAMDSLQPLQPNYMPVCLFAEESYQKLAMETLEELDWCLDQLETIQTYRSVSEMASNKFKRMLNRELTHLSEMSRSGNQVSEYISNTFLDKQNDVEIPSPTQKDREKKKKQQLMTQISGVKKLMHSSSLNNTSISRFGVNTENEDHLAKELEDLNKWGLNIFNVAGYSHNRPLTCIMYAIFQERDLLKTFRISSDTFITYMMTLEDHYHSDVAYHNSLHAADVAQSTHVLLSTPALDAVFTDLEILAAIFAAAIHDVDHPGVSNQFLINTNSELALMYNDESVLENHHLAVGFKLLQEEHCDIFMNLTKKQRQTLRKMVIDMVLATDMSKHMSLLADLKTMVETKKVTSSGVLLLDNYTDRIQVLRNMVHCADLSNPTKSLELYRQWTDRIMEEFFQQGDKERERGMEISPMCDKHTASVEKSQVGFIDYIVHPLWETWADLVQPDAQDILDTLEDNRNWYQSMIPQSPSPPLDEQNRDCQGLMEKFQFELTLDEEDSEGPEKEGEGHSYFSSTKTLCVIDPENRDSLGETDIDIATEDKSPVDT
Kind of test: PDE4B inhibition, radioactive SPA and/or IMAP fluorescence polarisation (FP) assay. Format: biochemical. The settings on record: one reading or average of several (ca. 2-6) readings; SPA and/or FP assay; range given for a group of Examples; read-out: PDE4B pIC50 (±about 0.5) (converted). The text has this:
Human recombinant PDE4B, in particular the 2B splice variant thereof (HSPDE4B2B), is disclosed in WO 94/20079 and also M. M. McLaughlin et al., “A low Km, rolipram-sensitive, cAMP-specific phosphodiesterase from human brain: cloning and expression of cDNA, biochemical characterisation of recombinant protein, and tissue distribution of mRNA”, J. Biol. Chem., 1993, 268, 6470-6476. For example, in Example 1 of WO 94/20079, human recombinant PDE4B is described as being expressed in the PDE-deficient yeast Saccharomyces cerevisiae strain GL62, e.g. after induction by addition of 150 uM CuSO4, and 100,000×g supernatant fractions of yeast cell lysates are described for use in the harvesting of PDE4B enzyme.
The ability of compounds to inhibit catalytic activity at PDE4B or 4D (human recombinant), PDE3 (from bovine aorta), PDE5 (human recombinant) or PDE6 (from bovine retina) can optionally be determined by Scintillation Proximity Assay (SPA) in 96-well format.
Test compounds (as a solution in DMSO, preferably about 2 microlitre (ul) volume of DMSO solution) are preincubated at ambient temperature (room temperature, e.g. 19-23° C.) in Wallac Isoplates (code 1450-514) with PDE enzyme in 50 mM Tris-HCl buffer pH 7.5, 8.3 mM MgCl2, 1.7 mM EGTA, 0.05% (w/v) bovine serum albumin for 10-30 minutes (usually 30 minutes). The enzyme concentration is adjusted so that no more than 20% hydrolysis of the substrate defined below occurs in control wells without compound, during the incubation. For the PDE3, PDE4B and PDE4D assays, [5′,8-3H]Adenosine 3′,5′-cyclic phosphate (Amersham Pharmacia Biotech, code TRK.559; or Amersham Biosciences UK Ltd, Pollards Wood, Chalfont St Giles, Buckinghamshire HP8 4SP, UK) is added to give 0.05 uCi per well and about 10 nM final concentration. For the PDE5 and PDE6 assays, [8-^3H]Guanosine 3′,5′-cyclic phosphate (Amersham Pharmacia Biotech, code TRK.392) is added to give 0.05 uCi per well and about 36 nM final concentration. Plates containing assay mixture, preferably approx. 100 ul volume of assay mixture, are mixed on an orbital shaker for 5 minutes and incubated at ambient temperature for 1 hour. Phosphodiesterase SPA beads (Amersham Pharmacia Biotech, code RPNQ 0150) are added (about 1 mg per well) to terminate the assay. Plates are sealed and shaken and allowed to stand at ambient temperature for 35 minutes to 1 hour (preferably 35 minutes) to allow the beads to settle. Bound radioactive product is measured using a WALLAC TRILUX 1450 Microbeta scintillation counter. For inhibition curves, 10 concentrations (1.5 nM-30 uM) of each compound are assayed. Curves are analysed using ActivityBase and XLfit (ID Business Solutions Limited, 2 Ocean Court, Surrey Research Park, Guildford, Surrey GU2 7QB, United Kingdom) Results are expressed as pIC50 values.
The ability of compounds to inhibit catalytic activity at PDE4B (human recombinant) or PDE4D (human recombinant) can optionally be determined by IMAP Fluorescence Polarisation (FP) assay (IMAP Explorer kit, available from Molecular Devices Corporation, Sunnydale, Calif., USA; Molecular Devices code: R8062) in 384-well format.
The IMAP FP assay is able to measure PDE activity in an homogenous, non-radioactive assay format. The FP assay uses the ability of immobilised trivalent metal cations, coated onto nanoparticles (tiny beads), to bind the phosphate group of Fl-AMP that is produced on the hydrolysis of fluorescein-labelled (Fl) cyclic adenosine mono-phosphate (Fl-cAMP) to the non-cyclic Fl-AMP form. […] Binding of Fl-AMP product to the beads (coated with the immobilised trivalent cations) slows the rotation of the bound Fl-AMP and leads to an increase in the fluorescence polarisation ratio of parallel to perpendicular light. Inhibition of the PDE reduces/inhibits this signal increase. […]
On to `CCn1ncc2c(NC3CCOCC3)c(C(=O)NC(CCO)c3ccccc3)cnc21` (centres unmarked) [Example 13, 1-ethyl-N-(3-hydroxy-1-phenylpropyl)-4-(tetrahydro-2H-pyran-4-ylamino)-1H-pyrazolo[3,4-b]pyridine-5-carboxamide], for which the IC50 was 0.794 to 5.01 nM.

For the molecule `CCn1ncc2c(N[C@H]3CC[C@@H](C(N)=O)CC3)c(C(=O)N[C@H](C)c3ccc(Br)cc3)cnc21` [Example 355, 4-{[cis-4-(aminocarbonyl)cyclohexyl]amino}-N-[(1R)-1-(4-bromophenyl)ethyl]-1-ethyl-1H-pyrazolo[3,4-b]pyridine-5-carboxamide], the IC50 is 0.501 to 3.16 nM.

On to `CC[C@@H](NC(=O)c1cnc2c(cnn2CC)c1N[C@H]1CC[C@H](C(N)=O)CC1)c1ccc(C)cc1C` [Example 356, 4-{[trans-4-(aminocarbonyl)cyclohexyl]amino}-N-[(1R)-1-(2,4-dimethylphenyl)propyl]-1-ethyl-1H-pyrazolo[3,4-b]pyridine-5-carboxamide], for which the IC50 was 39.8 to 158 nM.

As to `CCn1ncc2c(NC3CCC(C(N)=O)CC3)c(C(=O)N[C@H](C)c3ccc(Br)cc3)cnc21` (mixture of isomers) [Example 351, 4-{[4-(aminocarbonyl)cyclohexyl]amino}-N-[(1R)-1-(4-bromophenyl)ethyl]-1-ethyl-1H-pyrazolo[3,4-b]pyridine-5-carboxamide], the IC50 is 0.501 to 3.16 nM.

Regarding `CCn1ncc2c(NC3CCOCC3)c(C(=O)NC(C)c3ccc(C)cc3)cnc21` (centres unmarked) [Example 48, 1-ethyl-N-[1-(4-methylphenyl)ethyl]-4-(tetrahydro-2H-pyran-4-ylamino)-1H-pyrazolo[3,4-b]pyridine-5-carboxamide], the IC50 is 0.1 to 2 nM.

Regarding `CCn1ncc2c(NC3CCC(C(N)=O)CC3)c(C(=O)NC(C)c3ccc(Cl)cc3)cnc21` (mixture of isomers) [Example 349, 4-{[4-(aminocarbonyl)cyclohexyl]amino}-N-[1-(4-chlorophenyl)ethyl]-1-ethyl-1H-pyrazolo[3,4-b]pyridine-5-carboxamide], the IC50 is 0.501 to 3.16 nM.

Regarding `CCn1ncc2c(NC3CCOCC3)c(C(=O)N[C@@H](COC)c3ccccc3)cnc21` [Example 29, 1-ethyl-N-[(1R)-2-(methyloxy)-1-phenylethyl]-4-(tetrahydro-2H-pyran-4-ylamino)-1H-pyrazolo[3,4-b]pyridine-5-carboxamide], the IC50 was 31.6 to 70.8 nM.

As to `CCn1ncc2c(NC3CCOCC3)c(C(=O)N[C@H](C)c3ccc(C)cc3)cnc21` [Example 73, 1-ethyl-N-[(1R)-1-(4-methylphenyl)ethyl]-4-(tetrahydro-2H-pyran-4-ylamino)-1H-pyrazolo[3,4-b]pyridine-5-carboxamide], the IC50 was 0.1 to 2 nM.

As for `CCn1ncc2c(NC3CCOCC3)c(C(=O)N[C@@H](C)c3cccc4ccccc34)cnc21` [Example 38, 1-ethyl-N-[(1S)-1-(1-naphthalenyl)ethyl]-4-(tetrahydro-2H-pyran-4-ylamino)-1H-pyrazolo[3,4-b]pyridine-5-carboxamide], the IC50 is 12.6 to 25.1 nM.

As for `CCC(NC(=O)c1cnc2c(cnn2CC)c1NC1CCC(=O)CC1)c1ccc(Br)cc1` (centres unmarked) [Example 218, N-[1-(4-bromophenyl)propyl]-1-ethyl-4-[(4-oxocyclohexyl)amino]-1H-pyrazolo[3,4-b]pyridine-5-carboxamide], the IC50 is 0.1 to 2 nM.

As to `CC[C@@H](NC(=O)c1cnc2c(cnn2CC)c1N[C@H]1CC[C@@H](C(N)=O)CC1)c1ccc(C)cc1C` [Example 352, 4-{[cis-4-(aminocarbonyl)cyclohexyl]amino}-N-[(1R)-1-(2,4-dimethylphenyl)propyl]-1-ethyl-1H-pyrazolo[3,4-b]pyridine-5-carboxamide], the IC50 was 0.501 to 3.16 nM.
